Data published in patent publication US10201585B2, “Methods for treatment of atherosclerosis” (Stealth Peptides International, Inc., priority 2012, dated 2019).
“And” between values parts separate entries of the source, which are not always exact repeats. Equal values may be shown once. “Also recorded” adds a separate entry of the source.

Legend:
[1] = test system: Apoprotein E deficient mice; assay: Plasma lipid analysis using an autoanalyzer (TC, Trigs, PL, FC, CE by calculation); format: in vivo; design: Plasma Trigs (triglycerides) / Trigs (plasma triglycerides): unit not given beside the values; Plasma CE (cholesterol ester, by calculation) / Plasma PL (phospholipids): unit not given here
Excerpt: (§1) Apoprotein E deficient mice (Jackson Laboratories, 600 Main Street, Bar Harbor, Me.) were used in this study. The mice were male, 7-8 weeks of age, and between 18-20 g in weight. An initial total cholesterol measurement was made on 30 mice, and the mice were grouped into two groups of 15 to match the total cholesterol measurements. Both groups were fed a “western diet” (40 kcal % butterfat, 0.15% [wt/wt] cholesterol, Harlan Teklad diet TD-88137). Starting at t=0, the control group of 15 mice received vehicle only (phosphate buffered saline at pH 7.4), while the test group of 15 mice received aromatic-cationic peptide reconstituted in phosphate buffered saline. Body weights of the mice were recorded weekly, and mortality checks were performed daily.
(§2) The aromatic-cationic peptide D-Arg-2′6′-Dmt-Lys-Phe-NH2 (sterile lyophilized powder, reconstituted in phosphate buffered saline) was tested. For the 12-week study, test mice received a single, daily dose of the peptide, subcutaneously at 1 mg/kg. Control mice received a single daily dose of vehicle.
Blood was collected every four weeks (orbital plexis) under isoflurane anesthesia (3%) and blood lipids were determined. Plasma lipid analysis was conducted for both groups at t=0, 4, 6, 8, and 12 weeks. Plasma lipid analysis using an autoanalyzer included total cholesterol (TC), triglycerides (Trigs), phospholipids (PL), free cholesterol (FC), and cholesterol ester (CE, by calculation). Gel electrophoresis was used to measure levels of high-density lipoprotein cholesterol (HDL-C), low-density lipoprotein cholesterol (LDL-C), and very low-density lipoprotein cholesterol (VLDL-C).

[2] = test system: Apoprotein E deficient mice; assay: En face analysis of atherosclerotic lesions, thoracic aorta (Sudan IV, % of aortic surface covered by lipid); format: in vivo; conditions: 12 weeks
Excerpt: as §1, §2
Following the 12 week treatment, mice were euthanized within 48 hours after the last dose by CO2 asphyxiation and the vascular tree was perfused with 5 mL of phosphate buffered saline (pH 7.4). The aorta and aortic sinus were removed for examination. Thoracic aorta were isolated, trimmed of fat, and fixed in formalin for 48-72 hours before analysis. For en face analysis, aortas were laid out and pinned on black matrix for photography, and stained with Sudan IV. Vessels were imaged for surface involvement using a Nikon computerized image analysis system and the percent of the aortic surface area covered by lipid was calculated. Two determinations were done for each image (Quan 1 and Quan 2), and the average was computed. The data were then computed by group and statistically analyzed. Following staining and morphometric analysis, total lipids were extracted from the aortas using the Bligh-Dyer method. WAKO Diagnostics kits (WAKO Diagnostics, Inc., 1600 Bellwood Road Richmond, Va. 23237-1326) were then used to evaluate total cholesterol, free cholesterol, and cholesterol ester. Cholesterol levels were quantitate nad expressed relative to protein levels. Values are expressed as μg lipid per mg protein (see e.g., FIG. 1).

[3] = Week 0 (start of treatment, baseline), individual mouse of peptide group (sample 16-30)
[4] = Week 4, individual test mice (sample # 16-30), listed as aromatic-cationic peptide
[5] = Week 8, individual test mice (sample # 16-30), listed as aromatic-cationic peptide
[6] = Week 12, AVE of test mice 16-30
[7] = Week 12, individual test mice (sample # 16-30), listed as aromatic-cationic peptide
[8] = treated versus vehicle at 4, 8 and 12 week time points
[9] = ApoE deficient mice, western diet, peptide 1 mg/kg s.c. daily, individual mouse (sample 16-30)

## D-Arg-2′6′-Dmt-Lys-Phe-NH2
[1]; Week 0 (baseline), group mean of 15 test mice, vehicle group 136
  Plasma FC (free cholesterol), AVE: 142
[1]; Week 0 (baseline), group mean of 15 test mice, vehicle group 141
  Plasma Trigs (triglycerides), AVE: 140
[1]; Week 0 (baseline), group mean of 15 test mice, vehicle group 275
  Plasma CE (cholesterol ester, by calculation), AVE: 280
[1]; Week 0 (baseline), group mean of 15 test mice, vehicle group 297
  Plasma PL (phospholipids), AVE: 309
[1]; Week 0 (baseline), group mean of 15 test mice, vehicle group 411
  Plasma TC (total cholesterol), AVE: 422
[1]; [3]
  Plasma CE (cholesterol ester, by calculation): 183 and 197 and 242 and 192 and 207 and 204 and 240 and 366 and 196 and 270 and 297 and 382 and 306 and 331 and 588
  Plasma FC (free cholesterol): 119 and 121 and 134 (2×) and 110 and 116 and 131 and 129 and 184 and 113 and 139 and 170 and 151 and 159 and 220
  Plasma PL (phospholipids): 267 (3×) and 308 and 255 and 306 and 298 and 369 and 238 and 320 and 313 and 332 and 343 and 338 and 413
  Plasma TC (total cholesterol): 302 (2×) and 318 and 376 and 323 and 335 and 369 and 550 and 309 and 409 and 431 and 552 and 457 and 490 and 808
  Plasma Trigs (triglycerides): 75 and 88 (3×) and 117 and 96 and 71 and 138 and 167 and 136 and 151 and 191 and 188 and 154 and 353
[1]; Week 4, AVE of test mice 16-30
  CE (plasma cholesterol ester): 610
  FC (plasma free cholesterol): 387
  PL (plasma phospholipid): 514
  TC (plasma total cholesterol): 997
  Trigs (plasma triglycerides): 58
[1]; [4]
  CE (plasma cholesterol ester): 491 and 580 and 622 and 731 and 626 and 417 and 574 and 660 and 515 and 536 and 630 and 761 and 581 and 732 and 701
  FC (plasma free cholesterol): 308 and 344 and 354 (2×) and 408 and 412 and 256 and 366 and 386 and 320 and 286 and 396 and 462 and 516 and 636
  PL (plasma phospholipid): 422 and 482 and 452 and 560 and 526 and 320 and 506 and 556 and 446 and 416 and 516 and 580 and 510 and 666 and 750
  TC (plasma total cholesterol): 799 and 924 and 976 and 1139 and 1038 and 673 and 940 and 1046 and 835 and 822 and 1026 and 1223 and 935 and 1248 and 1337
  Trigs (plasma triglycerides): 18 (2×) and 39 and 28 and 85 and 59 (2×) and 46 and 108 and 33 and 44 (2×) and 67 and 80 and 144
[1]; Week 8, AVE of test mice 16-30
  CE (plasma cholesterol ester): 932
  FC (plasma free cholesterol): 350
  PL (plasma phospholipid): 493
  TC (plasma total cholesterol): 1282
  Trigs (plasma triglycerides): 57
[1]; [5]
  CE (plasma cholesterol ester): 940 and 710 and 1119 and 865 and 1153 and 653 and 714 and 1085 and 715 and 670 and 1073 and 1048 and 839 and 1130 and 1267
  FC (plasma free cholesterol): 322 and 294 (2×) and 386 and 318 and 392 and 290 and 388 and 308 (2×) and 286 and 362 and 366 and 404 and 530
  PL (plasma phospholipid): 416 and 456 and 474 and 448 and 516 (2×) and 424 and 480 and 488 and 436 and 440 and 556 and 470 and 540 and 728
  TC (plasma total cholesterol): 1262 and 1004 and 1505 and 1183 and 1545 and 943 and 1008 and 1473 and 1023 and 956 and 1435 and 1414 and 1147 and 1534 and 1797
  Trigs (plasma triglycerides): 34 (3×) and 31 (2×) and 51 (2×) and 48 and 53 and 43 and 75 and 63 and 39 and 67 and 195
[1]; [6]
  CE (plasma cholesterol ester): 681
  FC (plasma free cholesterol): 322
  PL (plasma phospholipid): 434
  TC (plasma total cholesterol): 1003
  Trigs (plasma triglycerides): 55
[1]; [7]
  CE (plasma cholesterol ester): 607 and 335 and 597 and 640 and 1002 and 477 and 445 and 476 and 675 and 687 and 960 and 869 and 339 and 904 and 1201
  FC (plasma free cholesterol): 291 and 205 and 287 and 296 and 418 and 242 and 229 and 269 and 315 and 312 and 419 and 386 and 219 and 413 and 535
  PL (plasma phospholipid): 366 and 318 and 320 and 432 and 491 and 321 and 363 and 394 and 374 and 423 and 536 and 521 and 340 and 575 and 741
  TC (plasma total cholesterol): 898 and 540 and 884 and 937 and 1420 and 719 and 674 and 745 and 990 and 999 and 1379 and 1255 and 558 and 1317 and 1736
  Trigs (plasma triglycerides): 27 and 49 and 10 and 37 (2×) and 18 and 39 (2×) and 13 and 25 and 74 and 89 and 97 and 112 and 158
[1]; [8]
  Plasma cholesterol ester, in words: reduces
  Plasma free cholesterol, in words: reduces
  Plasma phospholipid levels, in words: reduces
  Plasma total cholesterol, in words: reduces
  Plasma triglycerides, in words: reduces
[2]; [9]
  Ave. % of Lesion (average of Quan 1 and Quan 2): 2.615% and 0.892% and 9.027% and 3.019% and 7.009% and 4.833% and 1.996% and 1.205% and 9.948% and 2.763% and 6.814% and 4.734% and 0.834% and 11.239% and 12.990%
  Quan 1 (first determination of % of the aortic surface covered by lipid): 10.000% and 4.700%
  Quan 2 (second determination of % of the aortic surface covered by lipid): 0.870%
[2]; group mean of 15 test mice, peptide 1 mg/kg s.c. daily, vehicle group 7.189
  Ave (average % of the surface of the aortas showing lesions, group): 5.328%
[2]; treated versus vehicle, 1 mg/kg s.c. daily (Table 7, FIG. 1A), 1 mg/kg
  Atherosclerotic lesions in the aorta (% lesion area), in words: reduces; also recorded: lower
